Patent US20100278835A1, “NOVEL COMPOUNDS 660” (ASTRAZENECA UK LIMITED, priority 2009, published 2010)
Values after ≈ are worked out from the molar mass of the structure shown.

Legend:
Thermodynamic solubility = assay type: physicochemical
Experimental: A known amount of the test compound was stirred in 0.1M phosphate buffer pH 7.4 at constant temperature (25° C.) for 24 h. The supernatant was then separated from un-dissolved material by double centrifugation, and subsequently analysed and quantified against a standard of known concentration in DMSO using generic HPLC-UV methodology coupled with mass spectral peak identification. Data are also included for a reference quinazolin-2,4-dione derivative disclosed in WO 03/053344.

RSV RSS strain = experiment: ELISA assay of antiviral activity against RSV (reduction in RSV protein expression); assay type: cell-based; settings: Hep-2 cells infected with RSV RSS strain, multiplicity of infection 0.02, 3 days, concentration required to inhibit RSV protein expression by 50%
Experimental: The antiviral activity of these compounds against RSV was determined in an ELISA assay. […] ELISA assays were set up by seeding 96-well plates with 5×10^3 Hep-2 cells per well in 100 μl DMEM containing 10% FBS for 24 h. Compound dilutions were prepared in 0.5% DMSO and 50 μl/well was added to the assay plates, the plates were incubated at 37° C. in 5% CO2 for one hour. Cells were infected with 50 μl/well RSV RSS strain at a multiplicity of infection of 0.02 and were incubated at 37° C. in 5% CO2 for 3 days. Cells were then fixed and permeabilised with 75%/25% methanol acetone and blocked with 2% Marvel™, 0.05% Tween for one hour. Plates were then incubated in the presence of a 1:4000 dilution of […] polyclonal antibody (Millipore, AB1128) followed by a 1:1000 dilution of rabbit anti-goat, horseradish peroxidase (DAKO, PO449) labelled secondary antibody. The plates were developed with O-phenylenediamine in the presence of hydrogen peroxide. The antiviral activity of the compounds is presented as an IC50, the concentration required to inhibit RSV protein expression by 50%.

[1] = aqueous buffer, thermodynamic from solid, 0.1M phosphate buffer pH 7.4, 25° C., 24 h, HPLC-UV
[2] = human respiratory syncytial virus, 72 h

Row | Compound | solubility thermodynamic at 24 h (Thermodynamic solubility; [1]) [µM] | IC50 (RSV RSS strain; [2]) [nM] | other results
1 | 1-[[5-(aminomethyl)-1-isopentyl-benzimidazol-2-yl]methyl]-3-cyclopropyl-4,4-dimethyl-quinazolin-2-one [Example 21] |  |  | solubility thermodynamic at 24 h (Thermodynamic solubility; pH 7.4): 1050 µM; IC50 (RSV RSS strain): 57 nM
2 | CC(C)CCn1c(CN2C(=O)N(C)Cc3ccccc32)nc2cc(CN)ccc21 [Example 5, 1-[[5-(aminomethyl)-1-isopentyl-benzimidazol-2-yl]methyl]-3-methyl-4H-quinazolin-2-one] | 2290 (≈ 897 µg/mL) | 8.9 | 
3 | CC(C)CCn1c(CN2C(=O)N(C3CC3)Cc3ccccc32)nc2cc(CN)ccc21 [Example 7, 1-[[5-(Aminomethyl)-1-isopentyl-benzimidazol-2-yl]methyl]-3-cyclopropyl-4H-quinazolin-2-one] | 2300 (≈ 960 µg/mL) | 1.7 | 
4 | COCCN1Cc2ccccc2N(Cc2nc3cc(CN)ccc3n2CCC(C)C)C1=O [Example 13, 1-[[5-(aminomethyl)-1-isopentyl-benzimidazol-2-yl]methyl]-3-(2-methoxyethyl)-4H-quinazolin-2-one] | 1560 (≈ 679 µg/mL) | 101 | 
5 | CC(C)CCn1c(CN2C(=O)N(CC(C)C)Cc3ccccc32)nc2cc(CN)ccc21 [Example 15, 1-[[5-(aminomethyl)-1-isopentyl-benzimidazol-2-yl]methyl]-3-isobutyl-4H-quinazolin-2-one] |  | 1.9 | 
6 | CC(C)CCn1c(CN2C(=O)N(CC3CC3)Cc3ccccc32)nc2cc(CN)ccc21 [Example 16, 1-[[5-(aminomethyl)-1-isopentyl-benzimidazol-2-yl]methyl]-3-(cyclopropylmethyl)-4H-quinazolin-2-one] |  | 5.9 | 
7 | CC(C)CCn1c(CN2C(=O)N(CCCN3CCCC3)Cc3ccccc32)nc2cc(CN)ccc21 [Example 17, 1-[[5-(aminomethyl)-1-isopentyl-benzimidazol-2-yl]methyl]-3-(3-pyrrolidin-1-ylpropyl)-4H-quinazolin-2-one] |  |  | IC50 (RSV RSS strain): 13.7 nM
8 | CSCCN1Cc2ccccc2N(Cc2nc3cc(CN)ccc3n2CCC(C)C)C1=O [Example 18, 1-[[5-(aminomethyl)-1-isopentyl-benzimidazol-2-yl]methyl]-3-(2-methylsulfanylethyl)-4H-quinazolin-2-one] |  | 4 | 
9 | CC(C)CCn1c(CN2C(=O)N(CC3CCCCC3)Cc3ccccc32)nc2cc(CN)ccc21 [Example 19, 1-[[5-(aminomethyl)-1-isopentyl-benzimidazol-2-yl]methyl]-3-(cyclohexylmethyl)-4H-quinazolin-2-one] |  |  | IC50 (RSV RSS strain): 2890 nM
10 | CC(C)CCn1c(CN2C(=O)N(C3CC3)C(C)c3ccccc32)nc2cc(CN)ccc21 (centres unmarked) [Example 20, 1-[[5-(aminomethyl)-1-isopentyl-benzimidazol-2-yl]methyl]-3-cyclopropyl-4-methyl-4H-quinazolin-2-one] | 654 (≈ 282 µg/mL) | 9.4 | 
11 | CC(C)CCn1c(CN2C(=O)N(C3CC3)Cc3c2cccc3C(F)(F)F)nc2cc(CN)ccc21 [Example 22, 1-[[5-(aminomethyl)-1-isopentyl-benzimidazol-2-yl]methyl]-3-cyclopropyl-5-(trifluoromethyl)-4H-quinazolin-2-one] |  | 8.9 | 
12 | CC(C)CCn1c(CN2C(=O)N(C3CC3)Cc3c(F)cccc32)nc2cc(CN)ccc21 [Example 23, 1-[[5-(aminomethyl)-1-isopentyl-benzimidazol-2-yl]methyl]-3-cyclopropyl-5-fluoro-4H-quinazolin-2-one] | 242 (≈ 105 µg/mL) | 7.7 | 
13 | CN1Cc2ccccc2N(Cc2nc3cc(CN)ccc3n2CCCCO)C1=O [Example 24, 1-[[5-(aminomethyl)-1-(4-hydroxybutyl)benzimidazol-2-yl]methyl]-3-methyl-4H-quinazolin-2-one] |  | 3.2 | 
14 | NCc1ccc2c(c1)nc(CN1C(=O)N(C3CC3)Cc3ccccc31)n2CCCC(F)(F)F [Example 28, 1-[[5-(Aminomethyl)-1-(4,4,4-trifluorobutyl)benzimidazol-2-yl]methyl]-3-cyclopropyl-4H-quinazolin-2-one] | 289 (≈ 132 µg/mL) | 0.5 | 
15 | CC1c2ccccc2N(Cc2nc3cc(CN)ccc3n2CCCC(F)(F)F)C(=O)N1C1CC1 (centres unmarked) [Example 29, 1-[[5-(aminomethyl)-1-(4,4,4-trifluorobutyl)benzimidazol-2-yl]methyl]-3-cyclopropyl-4-methyl-4H-quinazolin-2-one] |  | 3.8 | 
16 | CC1(C)c2ccccc2N(Cc2nc3cc(CN)ccc3n2CCCC(F)(F)F)C(=O)N1C1CC1 [Example 30, 1-[[5-(aminomethyl)-1-(4,4,4-trifluorobutyl)benzimidazol-2-yl]methyl]-3-cyclopropyl-4,4-dimethyl-quinazolin-2-one] |  | 11 | 

Row | Compound | solubility thermodynamic at 24 h (Thermodynamic solubility; [1]) [µM] | IC50 (RSV RSS strain; [2]) [nM] | other results
17 | CN1Cc2ccccc2N(Cc2nc3cc(CNCCCN)ccc3n2CCCCO)C1=O [Example 34, 1-[[5-[(3-Aminopropylamino)methyl]-1-(4-hydroxybutyl)benzimidazole-2-yl]methyl]-3-methyl-4H-quinazolin-2-one] |  | 84 | 
18 | CC(C)CCn1c(CN2C(=O)N(C3CC3)Cc3ccccc32)nc2cc(C(=N)N)ccc21 [Example 35, 2-[(3-cyclopropyl-2-oxo-4H-quinazolin-1-yl)methyl]-1-isopentyl-benzimidazole-5-carboxamidine] | 808 (≈ 348 µg/mL) | 3.2 | 
19 | CC(C)CCn1c(CN2C(=O)N(C3CC3)C(C)c3ccccc32)nc2cc(C(=N)N)ccc21 (stereo not drawn) [Example 36, 2-[(3-cyclopropyl-4-methyl-2-oxo-4H-quinazolin-l-yl)methyl]-1-isopentyl-benzimidazole-5-carboxamidine] |  |  | IC50 (RSV RSS strain): 8.4 nM
20 | CC(C)CCn1c(CN2C(=O)N(C3CC3)C(C)(C)c3ccccc32)nc2cc(C(=N)N)ccc21 [Example 37, 2-[(3-cyclopropyl-4,4-dimethyl-2-oxo-quinazolin-1-yl)methyl]-1-isopentyl-benzimidazole-5-carboxamidine] |  | 42 | 
21 | CC(C)CCn1c(CN2C(=O)N(C3CC3)C(C)c3ccccc32)nc2cc(C(N)=NO)ccc21 (centres unmarked) [Example 39, 2-[(3-cyclopropyl-4-methyl-2-oxo-4H-quinazolin-1-yl)methyl]-N′-hydroxy-1-isopentyl-benzimidazole-5-carboxamidine] |  | 400 | 
22 | CC(C)CCn1c(CN2C(=O)N(C3CC3)C(C)(C)c3ccccc32)nc2cc(/C(N)=N/O)ccc21 [Example 40, 2-[(3-cyclopropyl-4,4-dimethyl-2-oxo-quinazolin-1-yl)methyl]-N′-hydroxy-1-isopentyl-benzimidazole-5-carboxamidine] |  | > 1000 | 
23 | N=C(N)c1ccc2c(c1)nc(CN1C(=O)N(C3CC3)Cc3ccccc31)n2CCCC(F)(F)F [Example 41, 2-[(3-cyclopropyl-2-oxo-4H-quinazolin-1-yl)methyl]-1-(4,4,4-trifluorobutyl)benzimidazole-5-carboxamidine] |  | 1.6 | 
24 | CC1c2ccccc2N(Cc2nc3cc(C(=N)N)ccc3n2CCCC(F)(F)F)C(=O)N1C1CC1 (centres unmarked) [Example 42, 2-[(3-cyclopropyl-4-methyl-2-oxo-4H-quinazolin-1-yl)methyl]-1-(4,4,4-trifluorobutyl)benzimidazole-5-carboxamidine] |  | 11.8 | 
25 | CC1(C)c2ccccc2N(Cc2nc3cc(C(=N)N)ccc3n2CCCC(F)(F)F)C(=O)N1C1CC1 [Example 43, 2-[(3-cyclopropyl-4,4-dimethyl-2-oxo-quinazolin-1-yl)methyl]-1-(4,4,4-trifluorobutyl)benzimidazole-5-carboxamidine] |  | 18 | 
26 | CC1c2ccccc2N(Cc2nc3cc(C(N)=NO)ccc3n2CCCC(F)(F)F)C(=O)N1C1CC1 (centres unmarked) [Example 44, 2-[(3-cyclopropyl-4-methyl-2-oxo-4H-quinazolin-1-yl)methyl]-N′-hydroxy-1-(4,4,4-trifluorobutyl)benzimidazole-5-carboxamidine] |  | 229 | 
27 | CC1(C)c2ccccc2N(Cc2nc3cc(/C(N)=N/O)ccc3n2CCCC(F)(F)F)C(=O)N1C1CC1 [Example 45, 2-[(3-cyclopropyl-4,4-dimethyl-2-oxo-quinazolin-1-yl)methyl]-N′-hydroxy-1-(4,4,4-trifluorobutyl)benzimidazole-5-carboxamidine] |  | > 1000 | 
28 | Cc1cc2c(cc1CN)nc(CN1C(=O)N(C3CC3)Cc3ccccc31)n2CCC(C)C [Example 46, 1-[[5-(Aminomethyl)-1-isopentyl-6-methyl-benzimidazol-2-yl]methyl]-3-cyclopropyl-4H-quinazolin-2-one] | 831 (≈ 359 µg/mL) | 1.5 | 
29 | CC(C)CCn1c(Cn2c(=O)n(C)c(=O)c3ccccc32)nc2cc(CN)ccc21 [reference compound] | 16 (≈ 6.49 µg/mL) |  | 
30 | CC(C)CCn1c(Cn2c(=O)n(C3CC3)c(=O)c3ccccc32)nc2cc(CN)ccc21 [reference compound] | 70 (≈ 30.2 µg/mL) |  | 
31 | COCCn1c(=O)c2ccccc2n(Cc2nc3cc(CN)ccc3n2CCC(C)C)c1=O [reference compound] | 36 (≈ 16.2 µg/mL) |  | 
32 | NCc1ccc2c(c1)nc(Cn1c(=O)n(C3CC3)c(=O)c3ccccc31)n2CCCC(F)(F)F [reference compound] | 90 (≈ 42.4 µg/mL) |  | 
